The structures appear in SMILES notation.

This experiment relates to HCT116 colorectal cancer cells. Briefly: Cisplatin sensitization assay (96 h cell viability MTS).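 Also: compound concentration needed to lower the Cisplatin-alone IC50 by a set fold.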 The experiment is classed as cell-based. The conditions noted are these: 96 h MTS, compound plus Cisplatin. In outline: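 Viability is measured with MTS reagent, added after 96 h and developed for 1 h at 37° C. Beforehand, cells receive compound and cisplatin simultaneously in a concentration matrix of 2-fold serial dilutions starting at 10 μM final.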
As to `Cc1cncc(NC(=O)c2c(N)nn3cc(F)cnc23)c1N1CCN(C2COC2)CC1` [I-N-16, 2-amino-6-fluoro-N-(5-methyl-4-(4-(oxetan-3-yl)piperazin-1-yl)pyridin-3-yl)pyrazolo[1,5-a]pyrimidine-3-carboxamide], the “Cisplatin Sensitization Assay” value is on record as “+++ (Compounds with a Cisplatin sensitization value of <0.02 μM are marked with “+++.”)”. With `CCN1CCN(c2ccncc2NC(=O)c2c(N)nn3cc(F)cnc23)CC1` [I-N-17, 2-amino-N-(4-(4-ethylpiperazin-1-yl)pyridin-3-yl)-6-fluoropyrazolo[1,5-a]pyrimidine-3-carboxamide] the entry was “+++ (Compounds with a Cisplatin sensitization value of <0.02 μM are marked with “+++.”)”; with `Nc1nn2cc(F)cnc2c1C(=O)Nc1cnccc1N1CCN2CCC1CC2` [I-N-18, N-(4-(1,4-diazabicyclo[3.2.2]nonan-4-yl)pyridin-3-yl)-2-amino-6-fluoropyrazolo[1,5-a]pyrimidine-3-carboxamide], “++ (Compounds with a Cisplatin sensitization value >0.02 μM but <0.2 μM are marked with “++.”)”. As for `Nc1nn2cc(F)cnc2c1C(=O)Nc1cnccc1N1CCN(CC(F)(F)F)CC1` [I-N-20, 2-amino-6-fluoro-N-(4-(4-(2,2,2-trifluoroethyl)piperazin-1-yl)pyridin-3-yl)pyrazolo[1,5-a]pyrimidine-3-carboxamide], the “Cisplatin Sensitization Assay” value was “+++ (Compounds with a Cisplatin sensitization value of <0.02 μM are marked with “+++.”)”.

For `Nc1nn2cc(F)cnc2c1C(=O)Nc1cnccc1N1CCN2CCC[C@H]2C1` [I-N-21, (S)-2-amino-6-fluoro-N-(4-(hexahydropyrrolo[1,2-a]pyrazin-2(1H)-yl)pyridin-3-yl)pyrazolo[1,5-a]pyrimidine-3-carboxamide], the “Cisplatin Sensitization Assay” value is listed as “+++ (Compounds with a Cisplatin sensitization value of <0.02 μM are marked with “+++.”)”.

Consider `C[C@@H]1CN(C2COC2)CCN1c1ccncc1NC(=O)c1c(N)nn2cc(F)cnc12` [I-N-23, (R)-2-amino-6-fluoro-N-(4-(2-methyl-4-(oxetan-3-yl)piperazin-1-yl)pyridin-3-yl)pyrazolo[1,5-a]pyrimidine-3-carboxamide], for which the “Cisplatin Sensitization Assay” value was “+++ (Compounds with a Cisplatin sensitization value of <0.02 μM are marked with “+++.”)”. Take `C[C@H]1CN(C2COC2)CCN1c1ccncc1NC(=O)c1c(N)nn2cc(F)cnc12` [I-N-24, (S)-2-amino-6-fluoro-N-(4-(2-methyl-4-(oxetan-3-yl)piperazin-1-yl)pyridin-3-yl)pyrazolo[1,5-a]pyrimidine-3-carboxamide]: the “Cisplatin Sensitization Assay” value was “+++ (Compounds with a Cisplatin sensitization value of <0.02 μM are marked with “+++.”)”. For `Nc1nn2cc(F)cnc2c1C(=O)Nc1cnccc1-n1cccn1` [I-N-26, N-(4-(1H-pyrazol-1-yl)pyridin-3-yl)-2-amino-6-fluoropyrazolo[1,5-a]pyrimidine-3-carboxamide], the “Cisplatin Sensitization Assay” value is on record as “+ (Compounds with a Cisplatin sensitization value >0.2 μM but <5 μM are marked with “+.”)”. Take `Nc1nn2cc(F)cnc2c1C(=O)Nc1cnccc1-n1cnc(C(F)(F)F)c1` [I-N-27, 2-amino-6-fluoro-N-(4-(4-(trifluoromethyl)-1H-imidazol-1-yl)pyridin-3-yl)pyrazolo[1,5-a]pyrimidine-3-carboxamide]: the “Cisplatin Sensitization Assay” value is given as “++ (Compounds with a Cisplatin sensitization value >0.02 μM but <0.2 μM are marked with “++.”)”. For the molecule `Cc1nccn1-c1ccncc1NC(=O)c1c(N)nn2cc(F)cnc12` [I-N-28, 2-amino-6-fluoro-N-(4-(2-methyl-1H-imidazol-1-yl)pyridin-3-yl)pyrazolo[1,5-a]pyrimidine-3-carboxamide], the “Cisplatin Sensitization Assay” value was “+++ (Compounds with a Cisplatin sensitization value of <0.02 μM are marked with “+++.”)”. `Nc1nn2cc(Cl)cnc2c1C(=O)Nc1cnccc1-n1ccnc1` [I-N-29, N-(4-(1H-imidazol-1-yl)pyridin-3-yl)-2-amino-6-chloropyrazolo[1,5-a]pyrimidine-3-carboxamide]: the “Cisplatin Sensitization Assay” value is “++ (Compounds with a Cisplatin sensitization value >0.02 μM but <0.2 μM are marked with “++.”)”. As for `Cc1nc(C(F)(F)F)cn1-c1ccncc1NC(=O)c1c(N)nn2cc(F)cnc12` [I-N-30, 2-amino-6-fluoro-N-(4-(2-methyl-4-(trifluoromethyl)-1H-imidazol-1-yl)pyridin-3-yl)pyrazolo[1,5-a]pyrimidine-3-carboxamide], the “Cisplatin Sensitization Assay” value is “++ (Compounds with a Cisplatin sensitization value >0.02 μM but <0.2 μM are marked with “++.”)”. For `Nc1nn2cc(F)cnc2c1C(=O)Nc1cnccc1N1CCN(C2COC2)C2CC21` (centres unmarked) [I-N-31, 2-amino-6-fluoro-N-(4-(5-(oxetan-3-yl)-2,5-diazabicyclo[4.1.0]heptan-2-yl)pyridin-3-yl)pyrazolo[1,5-a]pyrimidine-3-carboxamide], the “Cisplatin Sensitization Assay” value is recorded as “+ (Compounds with a Cisplatin sensitization value >0.2 μM but <5 μM are marked with “+.”)”.

Take `Nc1nn2cc(F)cnc2c1C(=O)Nc1cncc(C2CC2)c1N1CCN(C2COC2)CC1` [I-N-32, 2-amino-N-(5-cyclopropyl-4-(4-(oxetan-3-yl)piperazin-1-yl)pyridin-3-yl)-6-fluoropyrazolo[1,5-a]pyrimidine-3-carboxamide]: the “Cisplatin Sensitization Assay” value is recorded as “++ (Compounds with a Cisplatin sensitization value >0.02 μM but <0.2 μM are marked with “++.”)”. In the case of `Nc1nn2cc(F)cnc2c1C(=O)Nc1cnccc1N1CCN(C2CC2)CC1` [I-N-33, 2-amino-N-(4-(4-cyclopropylpiperazin-1-yl)pyridin-3-yl)-6-fluoropyrazolo[1,5-a]pyrimidine-3-carboxamide], the “Cisplatin Sensitization Assay” value is “+ (Compounds with a Cisplatin sensitization value >0.2 μM but <5 μM are marked with “+.”)”.

For the molecule `CC(C)(C)N1CCN(c2ccncc2NC(=O)c2c(N)nn3cc(Cl)cnc23)CC1` [I-N-34, 2-amino-N-(4-(4-(tert-butyl)piperazin-1-yl)pyridin-3-yl)-6-chloropyrazolo[1,5-a]pyrimidine-3-carboxamide], the “Cisplatin Sensitization Assay” value is “++ (Compounds with a Cisplatin sensitization value >0.02 μM but <0.2 μM are marked with “++.”)”.

`CN(C)[C@H]1CCN(c2ccncc2NC(=O)c2c(N)nn3cc(Cl)cnc23)C[C@@H]1O` [I-N-35, 2-amino-6-chloro-N-(4-((3S,4S)-4-(dimethylamino)-3-hydroxypiperidin-1-yl)pyridin-3-yl)pyrazolo[1,5-a]pyrimidine-3-carboxamide]: the “Cisplatin Sensitization Assay” value is listed as “+ (Compounds with a Cisplatin sensitization value >0.2 μM but <5 μM are marked with “+.”)”.

Take `CN(C)CC1(O)CCN(c2ccncc2NC(=O)c2c(N)nn3cc(Cl)cnc23)CC1` [I-N-36, 2-amino-6-chloro-N-(4-(4-((dimethylamino)methyl)-4-hydroxypiperidin-1-yl)pyridin-3-yl)pyrazolo[1,5-a]pyrimidine-3-carboxamide]: the “Cisplatin Sensitization Assay” value is “++ (Compounds with a Cisplatin sensitization value >0.02 μM but <0.2 μM are marked with “++.”)”. On to `CN(C)C1CCN(c2ccncc2NC(=O)c2c(N)nn3cc(Cl)cnc23)CC1` [I-N-37, 2-amino-6-chloro-N-(4-(4-(dimethylamino)piperidin-1-yl)pyridin-3-yl)pyrazolo[1,5-a]pyrimidine-3-carboxamide], for which the “Cisplatin Sensitization Assay” value is “++ (Compounds with a Cisplatin sensitization value >0.02 μM but <0.2 μM are marked with “++.”)”. `Nc1nn2cc(F)cnc2c1C(=O)Nc1cncc(Cl)c1N1CCN2CCN(C3COC3)CC2C1` (centres unmarked) [I-N-38, 2-amino-N-(5-chloro-4-(8-(oxetan-3-yl)hexahydro-1H-pyrazino[1,2-a]pyrazin-2(6H)-yl)pyridin-3-yl)-6-fluoropyrazolo[1,5-a]pyrimidine-3-carboxamide]: the “Cisplatin Sensitization Assay” value was “++ (Compounds with a Cisplatin sensitization value >0.02 μM but <0.2 μM are marked with “++.”)”. On to `CC(C)N1CCN(c2ccncc2NC(=O)c2c(N)nn3cc(Cl)cnc23)CC1` [I-N-39, 2-amino-6-chloro-N-(4-(4-isopropylpiperazin-1-yl)pyridin-3-yl)pyrazolo[1,5-a]pyrimidine-3-carboxamide], for which the “Cisplatin Sensitization Assay” value is “++ (Compounds with a Cisplatin sensitization value >0.02 μM but <0.2 μM are marked with “++.”)”. Regarding `CN(C)C1CCCN(c2ccncc2NC(=O)c2c(N)nn3cc(Cl)cnc23)C1` (centres unmarked) [I-N-40, 2-amino-6-chloro-N-(4-(3-(dimethylamino)piperidin-1-yl)pyridin-3-yl)pyrazolo[1,5-a]pyrimidine-3-carboxamide], the “Cisplatin Sensitization Assay” value was “++ (Compounds with a Cisplatin sensitization value >0.02 μM but <0.2 μM are marked with “++.”)”. With `CN1CCN(c2c(Cl)cncc2NC(=O)c2c(N)nn3cc(Cl)cnc23)CC1` [I-N-41, 2-amino-6-chloro-N-(5-chloro-4-(4-methylpiperazin-1-yl)pyridin-3-yl)pyrazolo[1,5-a]pyrimidine-3-carboxamide], the “Cisplatin Sensitization Assay” value is reported as “+++ (Compounds with a Cisplatin sensitization value of <0.02 μM are marked with “+++.”)”. As to `CN1CCCN(c2ccncc2NC(=O)c2c(N)nn3cc(Cl)cnc23)CC1` [I-N-43, 2-amino-6-chloro-N-(4-(4-methyl-1,4-diazepan-1-yl)pyridin-3-yl)pyrazolo[1,5-a]pyrimidine-3-carboxamide], the “Cisplatin Sensitization Assay” value is given as “++ (Compounds with a Cisplatin sensitization value >0.02 μM but <0.2 μM are marked with “++.”)”. On to `Nc1nn2cc(Cl)cnc2c1C(=O)Nc1cnccc1N1CCn2ccnc2C1` [I-N-44, 2-amino-6-chloro-N-(4-(5,6-dihydroimidazo[1,2-a]pyrazin-7(8H)-yl)pyridin-3-yl)pyrazolo[1,5-a]pyrimidine-3-carboxamide], for which the “Cisplatin Sensitization Assay” value was “++ (Compounds with a Cisplatin sensitization value >0.02 μM but <0.2 μM are marked with “++.”)”. Regarding `CN(C)CC1CCN(c2ccncc2NC(=O)c2c(N)nn3cc(Cl)cnc23)CC1` [I-N-45, 2-amino-6-chloro-N-(4-(4-((dimethylamino)methyl)piperidin-1-yl)pyridin-3-yl)pyrazolo[1,5-a]pyrimidine-3-carboxamide], the “Cisplatin Sensitization Assay” value was “++ (Compounds with a Cisplatin sensitization value >0.02 μM but <0.2 μM are marked with “++.”)”.

(Values after patent publication US10787452B2 (Vertex Pharmaceuticals Incorporated, priority 2012, dated 2020).)
